Data: ChEMBL document CHEMBL1152049, “Dual metalloprotease inhibitors.v. Utilization of bicyclic azepinonethiazolidines and azepinonetetrahydrothiazines in constrained peptidomimetics of mercaptoacyl dipeptides” (Bioorg Med Chem Lett, 1995)

Legend:
[1] = biological target: T1, Angiotensin-converting enzyme (Rattus norvegicus, UniProt P47820); test: In vitro inhibitory activity against angiotensin converting enzyme (ACE); conditions: read-out: I50
T1 sequence (P47820 whole entry): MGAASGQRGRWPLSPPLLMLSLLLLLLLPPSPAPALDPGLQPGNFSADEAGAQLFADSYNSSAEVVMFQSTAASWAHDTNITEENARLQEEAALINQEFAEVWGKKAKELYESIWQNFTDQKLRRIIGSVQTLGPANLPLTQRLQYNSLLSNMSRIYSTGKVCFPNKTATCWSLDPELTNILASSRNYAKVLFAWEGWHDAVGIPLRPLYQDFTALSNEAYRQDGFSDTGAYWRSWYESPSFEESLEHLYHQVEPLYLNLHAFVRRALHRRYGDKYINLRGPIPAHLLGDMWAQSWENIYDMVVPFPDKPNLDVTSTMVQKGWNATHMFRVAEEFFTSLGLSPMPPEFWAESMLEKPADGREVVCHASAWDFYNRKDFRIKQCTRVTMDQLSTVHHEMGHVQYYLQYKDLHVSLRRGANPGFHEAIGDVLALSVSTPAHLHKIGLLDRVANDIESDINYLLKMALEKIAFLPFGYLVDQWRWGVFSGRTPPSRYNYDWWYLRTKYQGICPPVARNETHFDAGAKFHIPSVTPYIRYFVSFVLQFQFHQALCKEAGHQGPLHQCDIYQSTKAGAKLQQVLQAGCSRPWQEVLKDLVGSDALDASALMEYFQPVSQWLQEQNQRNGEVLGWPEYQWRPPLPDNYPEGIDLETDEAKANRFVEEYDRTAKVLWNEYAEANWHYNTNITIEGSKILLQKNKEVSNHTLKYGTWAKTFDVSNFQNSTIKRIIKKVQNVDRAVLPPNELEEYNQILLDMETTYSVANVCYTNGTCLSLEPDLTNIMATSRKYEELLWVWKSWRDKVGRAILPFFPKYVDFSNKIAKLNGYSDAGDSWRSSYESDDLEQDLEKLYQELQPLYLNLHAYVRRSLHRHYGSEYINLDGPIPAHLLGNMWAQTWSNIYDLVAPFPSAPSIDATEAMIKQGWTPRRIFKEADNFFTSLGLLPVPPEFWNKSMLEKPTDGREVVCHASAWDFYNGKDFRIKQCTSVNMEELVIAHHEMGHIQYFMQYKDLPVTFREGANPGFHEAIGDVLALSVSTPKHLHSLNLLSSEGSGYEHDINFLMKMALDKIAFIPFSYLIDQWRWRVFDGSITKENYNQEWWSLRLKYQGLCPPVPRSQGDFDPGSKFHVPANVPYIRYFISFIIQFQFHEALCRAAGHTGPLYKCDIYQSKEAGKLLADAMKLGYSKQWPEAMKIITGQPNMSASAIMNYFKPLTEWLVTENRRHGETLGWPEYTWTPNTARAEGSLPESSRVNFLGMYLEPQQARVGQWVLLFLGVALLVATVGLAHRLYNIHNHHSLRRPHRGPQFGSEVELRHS

Neprilysin = biological target: T2, Neprilysin (Rattus norvegicus, UniProt P07861); test: In vitro inhibitory activity against neutral endopeptidase (NEP); conditions: read-out: I50
T2 sequence (P07861 whole entry): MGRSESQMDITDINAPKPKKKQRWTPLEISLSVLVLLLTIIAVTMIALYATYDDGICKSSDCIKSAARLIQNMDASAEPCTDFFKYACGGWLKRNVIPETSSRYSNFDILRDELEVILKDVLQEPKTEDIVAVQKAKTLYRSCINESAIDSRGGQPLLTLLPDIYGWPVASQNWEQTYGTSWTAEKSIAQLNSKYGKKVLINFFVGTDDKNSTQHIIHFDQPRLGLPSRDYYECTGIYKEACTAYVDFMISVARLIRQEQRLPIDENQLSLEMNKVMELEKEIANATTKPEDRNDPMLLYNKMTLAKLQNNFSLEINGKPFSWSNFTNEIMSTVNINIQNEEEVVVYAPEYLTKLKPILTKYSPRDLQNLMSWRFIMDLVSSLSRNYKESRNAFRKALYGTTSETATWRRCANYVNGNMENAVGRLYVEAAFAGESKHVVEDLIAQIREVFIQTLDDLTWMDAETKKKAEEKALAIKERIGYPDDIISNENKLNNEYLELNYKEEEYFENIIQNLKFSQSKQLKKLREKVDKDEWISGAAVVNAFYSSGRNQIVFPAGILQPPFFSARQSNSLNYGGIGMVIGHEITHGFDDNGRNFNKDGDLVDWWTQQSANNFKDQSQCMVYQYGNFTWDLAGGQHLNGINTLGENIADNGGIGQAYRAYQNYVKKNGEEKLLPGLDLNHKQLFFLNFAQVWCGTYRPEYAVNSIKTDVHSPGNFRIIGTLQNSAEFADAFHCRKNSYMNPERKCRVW

Rattus norvegicus = species: Rattus norvegicus; test: Dose required to effect 50% inhibition of the AI induced pressor response in normotensive rat; format: functional

Row | Structure (SMILES) | IC50 [1] | IC50 (Neprilysin) | ED50 (Rattus norvegicus)
1 | O=C(N[C@H]1CCC[C@@H]2SC[C@@H](C(=O)O)N2C1=O)[C@@H](S)Cc1ccccc1 | 11.5 nM | 2820 nM | 
2 | O=C(O)[C@H]1CCS[C@@H]2CCC[C@H](NC(=O)[C@@H](S)Cc3ccccc3)C(=O)N12 | 205 nM | 937 nM | 
3 | O=C(N[C@H]1CCC[C@H]2SCC[C@@H](C(=O)O)N2C1=O)[C@@H](S)Cc1ccccc1 | 25 nM | 42 nM | 
4 | O=C(N[C@H]1CCC[C@@H]2SCC[C@@H](C(=O)O)N2C1=O)[C@@H](S)Cc1ccccc1 | 11.6 nM | 133 nM | 
5 | O=C(N[C@H]1CCC[C@H]2SC[C@@H](C(=O)O)N2C1=O)[C@@H](S)Cc1ccccc1 | 1.6 nM | 11.5 nM | 0.07 µmol/kg
6 | O=C(N[C@H]1CCC[C@H]2SC[C@@H](C(=O)O)N2C1=O)[C@@H](CS)Cc1ccccc1 | 5.5 nM | 1.1 nM | 0.8 µmol/kg
